Laboratory results taken from patent publication US20230357162A1, “COMPOUNDS, COMPOSITIONS AND METHODS” (Denali Therapeutics Inc., priority 2020, published 2023).

Test system: IL-1β secretion, THP-1 cells
Assay: IL-1β secretion assay in PMA-differentiated THP-1 cells stimulated with LPS and nigericin (ELISA readout)
Format: cell-based
Details: Homo sapiens, THP-1, inhibition of IL-1β secretion, 25 ng/mL LPS then nigericin
Outline: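 THP-1 cells differentiated with 5 ng/mL PMA for 40 h, primed in serum-free medium with 25 ng/mL LPS for 2 h, then compound (0.5% DMSO) for 1 h before nigericin for 2 h at 37°C. Supernatant IL-1β quantified by ELISA; normalized to high (LPS + 5 µM nigericin) and low (LPS only) controls.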

SMILES	IC50 (class column of Table 3) [nM]	IC50 (numeric column of Table 3) [nM]
O=C(Cn1nc(Br)c2cc(Br)ccc2c1=O)Nc1ncc(F)cn1 [Example 181, 2-(4,6-Dibromo-1-Oxophthalazin-2-yl)-N-(5-Fluoropyrimidin-2-yl)Acetamide]	< 10000	230
O=C(Cn1nc(C(F)F)c2c(F)c(Br)ccc2c1=O)Nc1ncc(Cl)cn1 [Example 182]	< 10000	68
CCN1CCCC(NC(=O)Cn2nc(C(F)F)c3c(F)c(Br)ccc3c2=O)C1 (stereo not shown) [Example 183, 2-[6-bromo-4-(difluoromethyl)-5-fluoro-1-oxophthalazin-2-yl]-N-(1-ethylpiperidin-3-yl)acetamide]	< 10000	485
O=C(Cn1nc(C(F)F)c2c(F)c(C3CC3)ccc2c1=O)Nc1ncc(F)cn1 [Example 184, 2-[6-cyclopropyl-4-(difluoromethyl)-5-fluoro-1-oxophthalazin-2-yl]-N-(5-fluoropyrimidin-2-yl)acetamide]	< 10000	179
O=C(Cn1nc(C(F)F)c2c(F)c(C3CCC3)ccc2c1=O)Nc1ncc(F)cn1 [Example 185, 2-[6-cyclobutyl-4-(difluoromethyl)-5-fluoro-1-oxophthalazin-2-yl]-N-(5-fluoropyrimidin-2-yl)acetamide]	< 10000	2090
